Where “and” joins values, the source holds several entries; their conditions need not be identical. Equal entries are not always repeated.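 Protocol summary: plate cells (96-well), add compound at 5 concentrations, incubate 48 h, interpolate endpoints linearly. GI50 is the concentration that inhibits growth by half. Definition used: TGI = concentration required for complete inhibition of growth.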
Tests used:
Test in all cases: NCI-60 cell line screen, 48 h
786-0 renal = system: 786-0 renal
ACHN renal = system: ACHN renal
HCC-2998 colon = system: HCC-2998 colon
HOP-62 NSCLC = system: HOP-62 NSCLC
MCF7 breast = system: MCF7 breast
RXF 393 renal = system: RXF 393 renal
SK-MEL-28 melanoma = system: SK-MEL-28 melanoma
SK-MEL-5 melanoma = system: SK-MEL-5 melanoma
SNB-75 CNS = system: SNB-75 CNS
SR leukemia = system: SR leukemia
UACC-257 melanoma = system: UACC-257 melanoma

Question: What does the source list for `c1ccc(CSC2(SCc3ccccc3)CCCCC2)cc1`?
Answer: TGI (786-0 renal): > 10 µM; TGI (ACHN renal): > 10 µM; TGI (HCC-2998 colon): > 10 µM; TGI (HOP-62 NSCLC): > 10 µM; TGI (MCF7 breast): > 10 µM; TGI (RXF 393 renal): > 10 µM; TGI (SK-MEL-28 melanoma): > 10 µM; TGI (SK-MEL-5 melanoma): > 10 µM; TGI (SNB-75 CNS): > 10 µM; TGI (SR leukemia): > 10 µM; TGI (UACC-257 melanoma): > 10 µM

Question: What does the source list for `COc1ccc(/C=C2\C[C@H]3[C@@H]4CCC5=CC(=O)CC[C@]5(C)[C@H]4CC[C@]3(C)C2=O)cc1OC`?
Answer: TGI (786-0 renal): > 100 µM; TGI (ACHN renal): > 100 µM; TGI (HCC-2998 colon): > 100 µM; TGI (HOP-62 NSCLC): > 100 µM; TGI (MCF7 breast): > 100 µM; TGI (RXF 393 renal): > 100 µM; TGI (SK-MEL-28 melanoma): > 100 µM; TGI (SK-MEL-5 melanoma): 5.45 µM; TGI (SNB-75 CNS): > 100 µM; TGI (SR leukemia): 7.4 µM; TGI (UACC-257 melanoma): 68.4 µM

Question: `CCOP(=O)(OCC)OC1c2[nH]cc(C(=O)OCc3ccccc3)c2-c2cc(C(=O)OC)[nH]c2C1OC` (centres undefined) was tested. Which TGI (786-0 renal) did it give?
Answer: 27.4 µM

Question: And the TGI (ACHN renal)?
Answer: 30.5 µM

Question: What about the TGI (HCC-2998 colon) of the same compound?
Answer: > 78.9 µM

Question: What about the TGI (HOP-62 NSCLC) of the same compound?
Answer: 36.3 µM

Question: What about the TGI (MCF7 breast) of the same compound?
Answer: > 100 µM

Question: And the TGI (RXF 393 renal)?
Answer: > 56.3 µM

Question: What about the TGI (SK-MEL-28 melanoma) of the same compound?
Answer: > 100 µM

Question: What about the TGI (SK-MEL-5 melanoma) of the same compound?
Answer: > 82.8 µM

Question: What about the TGI (SNB-75 CNS) of the same compound?
Answer: 56.2 µM

Question: And the TGI (SR leukemia)?
Answer: > 100 µM

Question: What about the TGI (UACC-257 melanoma) of the same compound?
Answer: > 35 µM

Question: Which TGI (786-0 renal) does the source give for `CCOC(=O)c1c(NC(=S)Nc2ccccc2)sc2c1CCOC2` here?
Answer: > 100 µM

Question: And the TGI (ACHN renal)?
Answer: > 100 µM

Question: And the TGI (HCC-2998 colon)?
Answer: > 100 µM

Question: What about the TGI (HOP-62 NSCLC) of the same compound?
Answer: > 100 µM

Question: And the TGI (MCF7 breast)?
Answer: > 100 µM

Question: And the TGI (RXF 393 renal)?
Answer: > 100 µM

Question: And the TGI (SK-MEL-28 melanoma)?
Answer: > 100 µM

Question: What about the TGI (SK-MEL-5 melanoma) of the same compound?
Answer: > 100 µM

Question: What about the TGI (SNB-75 CNS) of the same compound?
Answer: 62.1 µM

Question: What about the TGI (SR leukemia) of the same compound?
Answer: > 100 µM

Question: What about the TGI (UACC-257 melanoma) of the same compound?
Answer: > 100 µM

Question: Which TGI (786-0 renal) does the source give for `COc1ccc2nc3cccc([N+](=O)[O-])c3c(NCCCO)c2c1` here?
Answer: 0.0517 µM

Question: And the GI50 (HCC-2998 colon)?
Answer: 1.86 nM

Question: What about the GI50 (HOP-62 NSCLC) of the same compound?
Answer: 2.82 nM

Question: And the TGI (HOP-62 NSCLC)?
Answer: 0.0157 µM and 0.0193 µM

Question: And the TGI (MCF7 breast)?
Answer: 0.0134 µM and 0.0389 µM

Question: What about the TGI (RXF 393 renal) of the same compound?
Answer: 0.00255 µM

Question: What about the TGI (SK-MEL-5 melanoma) of the same compound?
Answer: 0.00431 µM

Question: And the GI50 (SNB-75 CNS)?
Answer: 15.1 nM and 53.5 nM

Question: What about the TGI (SNB-75 CNS) of the same compound?
Answer: 0.0482 µM and 0.263 µM

Question: What about the GI50 (SR leukemia) of the same compound?
Answer: 0.0288 µM

Question: And the GI50 (UACC-257 melanoma)?
Answer: 3.79 nM

Question: And the TGI (UACC-257 melanoma)?
Answer: 0.0166 µM

Question: How did the TGI (786-0 renal) turn out when `N#Cc1c(O)c(/C=N/c2ncccn2)c(=O)n2c1[nH]c1ccccc12` was run?
Answer: > 100 µM

Question: And the TGI (HCC-2998 colon)?
Answer: > 100 µM

Question: What about the TGI (MCF7 breast) of the same compound?
Answer: > 100 µM

Question: What about the TGI (RXF 393 renal) of the same compound?
Answer: > 100 µM

Question: And the TGI (SK-MEL-28 melanoma)?
Answer: > 100 µM

Question: And the TGI (SK-MEL-5 melanoma)?
Answer: > 100 µM

Question: And the TGI (SNB-75 CNS)?
Answer: > 100 µM

Question: What about the TGI (SR leukemia) of the same compound?
Answer: > 100 µM

Question: And the TGI (UACC-257 melanoma)?
Answer: > 100 µM

Question: `CC1C(C#N)(C#N)C(C#N)=C(N)C1(Cl)[N+](=O)[O-]` (centres undefined) was tested. Which TGI (786-0 renal) did it give?
Answer: 18.1 µM

Question: And the TGI (ACHN renal)?
Answer: 23.7 µM

Question: And the TGI (HCC-2998 colon)?
Answer: 31.8 µM

Question: What about the TGI (HOP-62 NSCLC) of the same compound?
Answer: 9.72 µM

Question: What about the TGI (MCF7 breast) of the same compound?
Answer: 47.4 µM

Question: And the TGI (RXF 393 renal)?
Answer: 17.4 µM

Question: What about the TGI (SK-MEL-5 melanoma) of the same compound?
Answer: 25.4 µM

Question: What about the TGI (SNB-75 CNS) of the same compound?
Answer: 24.7 µM

Question: What about the TGI (SR leukemia) of the same compound?
Answer: 26.5 µM

Question: And the TGI (UACC-257 melanoma)?
Answer: 24.5 µM

Question: Which results are given for `COc1ccc(-c2c(C#N)c(S)n(NS(=O)(=O)c3ccccc3)c(=O)c2C#N)cc1`?
Answer: TGI (786-0 renal): > 100 µM; TGI (ACHN renal): > 100 µM; TGI (HCC-2998 colon): > 100 µM; TGI (HOP-62 NSCLC): > 100 µM; TGI (MCF7 breast): > 100 µM; TGI (RXF 393 renal): > 100 µM; TGI (SK-MEL-28 melanoma): > 100 µM; TGI (SK-MEL-5 melanoma): > 100 µM; TGI (SNB-75 CNS): > 100 µM; TGI (SR leukemia): 80.3 µM; TGI (UACC-257 melanoma): > 100 µM

Question: With `O=C(c1ccccc1)N1C(=S)N(c2ccccn2)C(=Nc2ccccc2)C1=Nc1ccccc1` as the compound, how does the TGI (786-0 renal) read?
Answer: > 82.8 µM

Question: And the TGI (ACHN renal)?
Answer: 35.3 µM

Question: And the TGI (HCC-2998 colon)?
Answer: > 100 µM

Question: What about the TGI (HOP-62 NSCLC) of the same compound?
Answer: > 84 µM

Question: And the TGI (MCF7 breast)?
Answer: > 100 µM

Question: What about the TGI (RXF 393 renal) of the same compound?
Answer: 25.9 µM

Question: And the TGI (SK-MEL-28 melanoma)?
Answer: > 100 µM

Question: And the TGI (SK-MEL-5 melanoma)?
Answer: > 50 µM

Question: What about the TGI (SNB-75 CNS) of the same compound?
Answer: > 100 µM

Question: What about the TGI (SR leukemia) of the same compound?
Answer: > 63 µM

Question: And the TGI (UACC-257 melanoma)?
Answer: > 74.6 µM

Question: Which results are given for `COc1cc(OC)c2[nH]c3c(O)c(-c4c(C)cc5c([nH]c6c(OC)cc(OC)cc65)c4O)c(C)cc3c2c1`?
Answer: TGI (786-0 renal): 15.1 µM; TGI (ACHN renal): 15.8 µM; TGI (HCC-2998 colon): 15.3 µM; TGI (HOP-62 NSCLC): 23.9 µM; GI50 (MCF7 breast): 8.68 µM; TGI (MCF7 breast): 18.9 µM; TGI (RXF 393 renal): 16.8 µM; TGI (SK-MEL-28 melanoma): 19.5 µM; GI50 (SK-MEL-5 melanoma): 8.38 µM; TGI (SK-MEL-5 melanoma): 15.2 µM; TGI (SNB-75 CNS): 15.5 µM; GI50 (SR leukemia): 9.01 µM; TGI (SR leukemia): 20 µM; TGI (UACC-257 melanoma): 19 µM

Question: With `CC(=O)OC(C)(C)CCC(=O)[C@](C)(O)[C@H]1[C@H](O)C[C@@]2(C)[C@@H]3CCc4c(cc(OC5OC(CO)C(O)C(O)C5O)c(O)c4C)C3(C)C(=O)C[C@]12C` (some centres undefined) as the compound, how does the TGI (786-0 renal) read?
Answer: > 100 µM

Question: What about the TGI (ACHN renal) of the same compound?
Answer: > 100 µM

Question: And the TGI (HCC-2998 colon)?
Answer: > 100 µM

Question: And the TGI (HOP-62 NSCLC)?
Answer: > 100 µM

Question: What about the TGI (MCF7 breast) of the same compound?
Answer: > 100 µM

Question: What about the TGI (RXF 393 renal) of the same compound?
Answer: > 100 µM

Question: What about the TGI (SK-MEL-28 melanoma) of the same compound?
Answer: > 100 µM

Question: And the TGI (SK-MEL-5 melanoma)?
Answer: > 100 µM

Question: What about the TGI (SNB-75 CNS) of the same compound?
Answer: > 100 µM

Question: What about the TGI (SR leukemia) of the same compound?
Answer: > 100 µM

Question: And the TGI (UACC-257 melanoma)?
Answer: > 100 µM

Question: Which TGI (786-0 renal) does the source give for `CC1(C)[C@@H]2C[C@H]1c1cnc(-c3ccccn3)cc1C2CCCCC[C@@H]1c2cc(-c3ccccn3)ncc2[C@@H]2C[C@H]1C2(C)C` (some centres undefined) here?
Answer: 11.5 µM

Question: And the TGI (ACHN renal)?
Answer: > 100 µM

Question: And the TGI (HCC-2998 colon)?
Answer: > 100 µM

Question: And the TGI (HOP-62 NSCLC)?
Answer: > 69.2 µM

Question: And the TGI (MCF7 breast)?
Answer: > 100 µM

Question: And the TGI (RXF 393 renal)?
Answer: 45.5 µM

Question: What about the TGI (SK-MEL-28 melanoma) of the same compound?
Answer: > 100 µM

Question: And the TGI (SK-MEL-5 melanoma)?
Answer: > 38.5 µM

Question: What about the TGI (SNB-75 CNS) of the same compound?
Answer: > 22.6 µM

Question: And the TGI (SR leukemia)?
Answer: > 100 µM

Question: What does the source list for `C=C1C[C@H](O)[C@H](Br)C(C)(C)C12CCC(C)(Cl)C(Br)C2` (some centres undefined)?
Answer: TGI (786-0 renal): 15.4 µM; TGI (ACHN renal): 14.8 µM; TGI (HCC-2998 colon): 15.5 µM; TGI (HOP-62 NSCLC): 12.2 µM; TGI (MCF7 breast): 11.2 µM; TGI (RXF 393 renal): 10.6 µM; TGI (SK-MEL-28 melanoma): 19 µM; TGI (SK-MEL-5 melanoma): 12.2 µM; TGI (SNB-75 CNS): 11.2 µM; TGI (SR leukemia): 19.7 µM; TGI (UACC-257 melanoma): 3.06 µM

Question: Which results are given for `COC(=O)CCC(NC(=O)OC(C)(C)C)C(=O)NC(Cc1ccc(NC(=O)CCCC(C)=O)cc1)C(=O)NC(CCC(=O)OC)C(=O)OC` (centres undefined)?
Answer: TGI (786-0 renal): > 100 µM; TGI (ACHN renal): > 100 µM; TGI (HCC-2998 colon): > 100 µM; TGI (HOP-62 NSCLC): > 100 µM; TGI (MCF7 breast): > 100 µM; TGI (RXF 393 renal): > 100 µM; TGI (SK-MEL-28 melanoma): > 100 µM; TGI (SK-MEL-5 melanoma): > 100 µM; TGI (SNB-75 CNS): > 100 µM; TGI (SR leukemia): > 100 µM; TGI (UACC-257 melanoma): > 100 µM
